Measurements as given in ChEMBL document CHEMBL5303573, “Mapping human microbiome drug metabolism by gut bacteria and their genes” (Nature, 2019).

What was measured:
[1] = The drug is tested on Bacteroides vulgatus strain: ATCC8482 for biotransformation. The drug concentrations were measured before and after a 12-h incubation by liquid-chromatography-coupled mass spectrometry (LC–MS); conditions: phocaeicola vulgatus, 2 µM
[2] = segatella copri, 12 h, 2 µM
Description: The drug is tested on Prevotella copri strain: DSM18205 for biotransformation. The drug concentrations were measured before and after a 12-h incubation by liquid-chromatography-coupled mass spectrometry (LC–MS)

[3] = The drug is tested on Alistipes indistinctus strain: DSM22520 for biotransformation. The drug concentrations were measured before and after a 12-h incubation by liquid-chromatography-coupled mass spectrometry (LC–MS); conditions: 2 µM
[4] = bacteroides intestinalis, 12 h, 2 µM
Description: The drug is tested on Bacteroides intestinalis strain: DSM17393 for biotransformation. The drug concentrations were measured before and after a 12-h incubation by liquid-chromatography-coupled mass spectrometry (LC–MS)

[5] = The drug is tested on Clostridium asparagiforme strain: DSM15981 for biotransformation. The drug concentrations were measured before and after a 12-h incubation by liquid-chromatography-coupled mass spectrometry (LC–MS); assay type: ADME; parameters: dose 2 uM, timepoint 0 vs 12 hours; conditions: enterocloster asparagiformis, 2 µM
[6] = The drug is tested on Clostridium symbiosum strain: ATCC14940 for biotransformation. The drug concentrations were measured before and after a 12-h incubation by liquid-chromatography-coupled mass spectrometry (LC–MS); conditions: 2 µM
[7] = anaerostipes sp., 12 h, 2 µM
Description: The drug is tested on Anaerostipes sp. strain: fecal isolate for biotransformation. The drug concentrations were measured before and after a 12-h incubation by liquid-chromatography-coupled mass spectrometry (LC–MS)

[8] = The drug is tested on Ruminococcus lactaris strain: ATCC29176 for biotransformation. The drug concentrations were measured before and after a 12-h incubation by liquid-chromatography-coupled mass spectrometry (LC–MS); conditions: 2 µM
[9] = The drug is tested on Eggerthella lenta strain: ATCC25559 for biotransformation. The drug concentrations were measured before and after a 12-h incubation by liquid-chromatography-coupled mass spectrometry (LC–MS); conditions: 2 µM
[10] = bacteroides thetaiotaomicron, 12 h, 2 µM
Description: The drug is tested on Bacteroides thetaiotaomicron strain: VPI-5482 for biotransformation. The drug concentrations were measured before and after a 12-h incubation by liquid-chromatography-coupled mass spectrometry (LC–MS)

[11] = bacteroides thetaiotaomicron, 12 h, 2 µM; remark: listed apart in the source
Description: The drug is tested on Bacteroides thetaiotaomicron strain: 7330 for biotransformation. The drug concentrations were measured before and after a 12-h incubation by liquid-chromatography-coupled mass spectrometry (LC–MS)

[12] = The drug is tested on Bacteroides uniformis strain: ATCC8492 for biotransformation. The drug concentrations were measured before and after a 12-h incubation by liquid-chromatography-coupled mass spectrometry (LC–MS); conditions: 2 µM
[13] = bacteroides fragilis, 12 h, 2 µM
Description: The drug is tested on Bacteroides fragilis strain: 3397 (T10) for biotransformation. The drug concentrations were measured before and after a 12-h incubation by liquid-chromatography-coupled mass spectrometry (LC–MS)

[14] = The drug is tested on Bacteroides dorei strain: DSM17855 for biotransformation. The drug concentrations were measured before and after a 12-h incubation by liquid-chromatography-coupled mass spectrometry (LC–MS); conditions: phocaeicola dorei, 2 µM
[15] = roseburia intestinalis, 12 h, 2 µM
Description: The drug is tested on Roseburia intestinalis strain: L1-82 for biotransformation. The drug concentrations were measured before and after a 12-h incubation by liquid-chromatography-coupled mass spectrometry (LC–MS)

[16] = bacteroides fragilis, 12 h, 2 µM; remark: listed apart in the source
Description: The drug is tested on Bacteroides fragilis strain: DS-208 for biotransformation. The drug concentrations were measured before and after a 12-h incubation by liquid-chromatography-coupled mass spectrometry (LC–MS)

[17] = The drug is tested on Bacteroides pectinophilus strain: ATCC43243 for biotransformation. The drug concentrations were measured before and after a 12-h incubation by liquid-chromatography-coupled mass spectrometry (LC–MS); conditions: 2 µM
[18] = bacteroides eggerthii, 12 h, 2 µM
Description: The drug is tested on Bacteroides eggerthii strain: DSM20697 for biotransformation. The drug concentrations were measured before and after a 12-h incubation by liquid-chromatography-coupled mass spectrometry (LC–MS)

[19] = The drug is tested on Bifidobacterium ruminantium strain: fecal isolate for biotransformation. The drug concentrations were measured before and after a 12-h incubation by liquid-chromatography-coupled mass spectrometry (LC–MS); conditions: 2 µM
[20] = akkermansia muciniphila, 12 h, 2 µM
Description: The drug is tested on Akkermansia muciniphila strain: ATCC BAA-835 for biotransformation. The drug concentrations were measured before and after a 12-h incubation by liquid-chromatography-coupled mass spectrometry (LC–MS)

Row | SMILES | Bacterial Biotransformation [1] | Bacterial Biotransformation [2] | Bacterial Biotransformation [3] | Bacterial Biotransformation [4] | Bacterial Biotransformation [5] | Bacterial Biotransformation [6] | Bacterial Biotransformation [7] | Bacterial Biotransformation [8] | Bacterial Biotransformation [9] | Bacterial Biotransformation [10] | Bacterial Biotransformation [11] | Bacterial Biotransformation [12] | Bacterial Biotransformation [13] | Bacterial Biotransformation [14] | Bacterial Biotransformation [15] | Bacterial Biotransformation [16] | Bacterial Biotransformation [17] | Bacterial Biotransformation [18] | Bacterial Biotransformation [19] | Bacterial Biotransformation [20]
1 | CSc1ccc2c(c1)C(N1CCN(C)CC1)Cc1ccccc1S2.O=C(O)/C=C\C(=O)O (stereo unspecified) | Compound NOT metabolized | Compound metabolized | Compound NOT metabolized | Compound NOT metabolized | Compound NOT metabolized | Compound NOT metabolized | Compound metabolized | Compound NOT metabolized | Compound NOT metabolized | Compound NOT metabolized | Compound NOT metabolized | Compound metabolized | Compound NOT metabolized | Compound NOT metabolized | Compound NOT metabolized | Compound NOT metabolized | Compound NOT metabolized | Compound NOT metabolized | Compound NOT metabolized | Compound NOT metabolized
2 | N[C@@H](Cc1ccc(N(CCCl)CCCl)cc1)C(=O)O | Compound metabolized | Compound metabolized | Compound metabolized | Compound metabolized | Compound metabolized | Compound metabolized | Compound metabolized | Compound metabolized | Compound metabolized | Compound metabolized | Compound metabolized | Compound metabolized | Compound metabolized | Compound metabolized | Compound metabolized | Compound metabolized | Compound metabolized | Compound metabolized | Compound metabolized | Compound metabolized
3 | CCN1CCCC1CNC(=O)c1cc(S(=O)(=O)CC)c(N)cc1OC (stereo unspecified) [AMISULPRIDE] | Compound NOT metabolized | Compound NOT metabolized | Compound NOT metabolized | Compound NOT metabolized | Compound NOT metabolized | Compound NOT metabolized | Compound NOT metabolized | Compound NOT metabolized | Compound NOT metabolized | Compound NOT metabolized | Compound NOT metabolized | Compound NOT metabolized | Compound NOT metabolized | Compound NOT metabolized | Compound NOT metabolized | Compound NOT metabolized | Compound NOT metabolized | Compound NOT metabolized | Compound NOT metabolized | Compound NOT metabolized
4 | CN1CCc2cccc3c2[C@H]1Cc1ccc(O)c(O)c1-3 [APOMORPHINE] | Compound NOT metabolized | Compound NOT metabolized | Compound NOT metabolized | Compound NOT metabolized | Compound NOT metabolized | Compound NOT metabolized | Compound NOT metabolized | Compound NOT metabolized | Compound NOT metabolized | Compound NOT metabolized | Compound NOT metabolized | Compound NOT metabolized | Compound NOT metabolized | Compound NOT metabolized | Compound NOT metabolized | Compound NOT metabolized | Compound NOT metabolized | Compound NOT metabolized | Compound NOT metabolized | Compound NOT metabolized
5 | C[C@@H]1CC[C@H]2[C@@H](C)C(=O)O[C@@H]3O[C@@]4(C)CC[C@@H]1[C@]32OO4 [ARTEMISININ] | Compound metabolized | Compound metabolized | Compound metabolized | Compound metabolized | Compound metabolized | Compound metabolized | Compound metabolized | Compound metabolized | Compound metabolized | Compound metabolized | Compound metabolized | Compound metabolized | Compound metabolized | Compound metabolized | Compound metabolized | Compound metabolized | Compound metabolized | Compound metabolized | Compound metabolized | Compound metabolized
6 | CNCCC(Oc1ccc(C(F)(F)F)cc1)c1ccccc1 (stereo unspecified) [FLUOXETINE] | Compound metabolized | Compound metabolized | Compound metabolized | Compound metabolized | Compound metabolized | – | Compound metabolized | Compound metabolized | Compound NOT metabolized | Compound metabolized | Compound metabolized | Compound metabolized | Compound metabolized | Compound metabolized | Compound metabolized | Compound metabolized | Compound metabolized | Compound metabolized | Compound metabolized | Compound metabolized
7 | COc1ccc2[nH]c([S+]([O-])Cc3ncc(C)c(OC)c3C)nc2n1 (stereo unspecified) [TENATOPRAZOLE] | Compound metabolized | Compound metabolized | Compound metabolized | Compound metabolized | Compound metabolized | – | – | – | Compound metabolized | Compound metabolized | Compound metabolized | Compound metabolized | Compound metabolized | Compound metabolized | Compound metabolized | Compound metabolized | Compound metabolized | Compound metabolized | Compound metabolized | Compound metabolized
